Laboratory results taken from US20220265713A1, “SPHINGOLIPIDS FOR GENERATING REGULATORY CD4+ T CELLS” (Deutsches Krebsforschungszentrum, priority 2019, published 2022).

Tests used:
naïve CD4+ T cells [1] = assay: Th17 cell in vitro differentiation of naïve CD4+ T cells (flow cytometry of IL-17); format: cell-based, mouse; details: sphinganine 5 μM, three days
Procedure: FIG. 4. Sphinganine promoted the Treg cell in vitro generation and suppressed the inflammatory Th17 cell formation. The YFP-negative CD4^+non-Treg naïve T cells were FACS-sorted (1 ×10^5 cells in 250 μl complete medium) from the Foxp3Cre-YFP mice. The naive T cells were activated with the anti-CD3 and anti-CD28 for three days, in the presence or absence of cytokine TGFβ (5 ng/ml) and IL-2 (10 ng/ml) for Treg cells and TGFβ (5 ng/ml), IL-6 (20 ng/ml) and anti-IFNy (10 μg/ml) for Th17 cells. A: flow cytometry analysis of Foxp3 protein expression after induction of Treg cell formation with sphinganine (5 μM) in the presence of cytokine TGFβ (5 ng/ml) or vehicle control DMSO (no TGFβ). B: Flow cytometry analysis of IL-17 protein expression after induction of Th17 cell formation with TGFβ (5 ng/ml), IL-6 (20 ng/ml) and anti-IFNy (10 μg/ml) in the presence or absence of sphinganine (5 μM). C: Flow cytometry analysis of Foxp3 protein expression after induction of Treg cell formation in the presence of TGFβ (5 ng/ml) and L- serine (5 μM), 3-KDS (5 μM), shinganine (5 μM), dihydroceramide (50 nM), ceramide (50 nM), sphingosine (1 μM), sphingosine-1-phosphate (1 μM), shinganine-1-phosphate (1 μM), or vehicle control DMSO (TGFβ only). […]
(§1) Flow Cytometry. […] Samples were run on the LSR II and analyzed using the Flowjo software (FlowJo, LLC, BD). […]

naïve CD4+ T cells [2] = assay: Treg cell in vitro differentiation of naïve CD4+ T cells (flow cytometry of Foxp3); format: cell-based, mouse; details: sphinganine 5 μM, three days; for Foxp3 protein expression: anti-CD3, anti-CD28, TGFβ 5 ng/ml, IL-2 10 ng/ml, vs vehicle DMSO, FIG. 4A/4C
Procedure: FIG. 4. Sphinganine promoted the Treg cell in vitro generation and suppressed the inflammatory Th17 cell formation. The YFP-negative CD4^+non-Treg naïve T cells were FACS-sorted (1 ×10^5 cells in 250 μl complete medium) from the Foxp3Cre-YFP mice. The naive T cells were activated with the anti-CD3 and anti-CD28 for three days, in the presence or absence of cytokine TGFβ (5 ng/ml) and IL-2 (10 ng/ml) for Treg cells and TGFβ (5 ng/ml), IL-6 (20 ng/ml) and anti-IFNy (10 μg/ml) for Th17 cells. A: flow cytometry analysis of Foxp3 protein expression after induction of Treg cell formation with sphinganine (5 μM) in the presence of cytokine TGFβ (5 ng/ml) or vehicle control DMSO (no TGFβ). B: Flow cytometry analysis of IL-17 protein expression after induction of Th17 cell formation with TGFβ (5 ng/ml), IL-6 (20 ng/ml) and anti-IFNy (10 μg/ml) in the presence or absence of sphinganine (5 μM). C: Flow cytometry analysis of Foxp3 protein expression after induction of Treg cell formation in the presence of TGFβ (5 ng/ml) and L- serine (5 μM), 3-KDS (5 μM), shinganine (5 μM), dihydroceramide (50 nM), ceramide (50 nM), sphingosine (1 μM), sphingosine-1-phosphate (1 μM), shinganine-1-phosphate (1 μM), or vehicle control DMSO (TGFβ only). D: Structures of sphingolipids, as indicated, and sphingolipid biosynthetic pathway are depicted. The numbers in each FACS plot show the percentages of the indicated cell population within the total population of cells shown in the FACS plot.
Mouse primary T cell culture. Complete medium was used for cell culture and was prepared by supplementing RPMI 1640 plain medium with 10% fetal calf serum, penicillin/streptomycin antibiotics and non-essential amino acids. For Treg and Th17 cell in vitro differentiation, naïve splenic T cells were purified from the Sptic2^+/+Foxp3Cre-YFP wild type mice using the flow cytometry sorter. […]
as §1

EAE mice = assay: EAE mouse model for multiple sclerosis (MOG35-55 immunization), clinical scoring; format: in vivo; details: C57BL/6 mice, sphinganine 1000 μg/kg body weight intraperitoneally, one injection every two days, day 1 to day 15, FIG. 5
Procedure: EAE induction and monitoring. Each mouse was subcutaneously immunized with 200 μg MOG35-55 peptide emulsified in Freund's Complete Adjuvant. Pertussis toxin (400 ng per mouse) was injected intraperitoneally. Where indicated, mice were intraperitoneally injected with sphinganine (every other day from the day of immunization to the end of the experiments). EAE symptoms were scored every day using the following scoring standard: 0, no sign; 1, limp tail; 2, paraparesis (incomplete paralysis of 1 or 2 hind limbs); 3, paraplegia (complete paralysis of 2 hind limbs); 4, paraplegia with forelimb weakness or paralysis; 5, moribund state or death. For the mouse welfare reason, we sacrificed the mice if the score reached 3. […] C57BL/6 mice were subcutaneously immunized with 200 μg MOG35-55 peptide emulsified in Freund's Complete Adjuvant to induce EAE development. Pertussis toxin (400 ng per mouse) was injected intraperitoneally. Mice were intraperitoneally injected with sphinganine (1000 μg/kg body weight, one injection every two days, from day 1 to day 15). EAE symptoms were scored every day.

CCCCCCCCCCCCCCC[C@@H](O)[C@@H](N)CO [sphinganine]
IL-17 production / IL-17 protein expression (naïve CD4+ T cells [1]; Th17 cell-differentiation condition: TGFβ 5 ng/ml, IL-6 20 ng/ml, anti-IFNy 10 μg/ml, FIG. 4B): reduced
inflammatory Th17 cell formation (naïve CD4+ T cells [1]; TGFβ, IL-6, anti-IFNy): suppressed
Treg cell in vitro generation / Treg cell formation (naïve CD4+ T cells [2]; Treg cell-inducing condition (anti-CD3, anti-CD28, TGFβ, IL-2)): promoted
Foxp3 protein expression (naïve CD4+ T cells [2]): increase
Foxp3 protein expression (naïve CD4+ T cells [2]; listed as Sphinganine): further increased
EAE clinical scores / EAE development (EAE mice): reduced
EAE clinical scores / EAE development (EAE mice; listed as Sphinganine): ameliorated EAE development
